The values that follow come from patent publication US9662388B2, “Methods and systems for treating cell proliferation disorders using plasmonics enhanced photospectral therapy (PEPST) and exciton-plasmon enhanced phototherapy (EPEP)” (Duke University, priority 2008, dated 2017).

For experiment [1] the following is noted: average over λex 224, 266, 280 nm.
The conditions of experiment [2]: cited from earlier work.

Structures are written as SMILES. Where two headings read alike, the source gives them in different places. Non-standard residues stand in square brackets, D forms with d. Residues, ends and D or L forms follow the SMILES beside them. Bpa = N[CH](Cc1ccc(C(=O)c2ccccc2)cc1)C(=O)O; 2Nal = N[CH](Cc1ccc2ccccc2c1)C(=O)O; Aib = CC(C)(N)C(=O)O

For the compound `CC(NC(=O)C(C)(C)NC(=O)C(Cc1ccc(C(=O)c2ccccc2)cc1)NC(=O)C(C)(C)NC(=O)C(Cc1ccc2ccccc2c1)NC(=O)C(C)(C)NC(=O)C(C)NC(=O)C(C)(C)N)C(=O)O` (single isomer, unassigned) [Compound 2B], the “kSSET (Average)” value in experiment [1] was 3.9e+07 s⁻¹. Moreover, the kSSET is 3.1e+07 s⁻¹ in experiment [2] (λex 224 nm), 3.9e+07 s⁻¹ in experiment [2] (λex 266 nm) and 4.7e+07 s⁻¹ in experiment [2] (λex 280 nm).

With `CC1NC(=O)C(C)(C)NC(=O)C(Cc2ccc(C(=O)c3ccccc3)cc2)NC(=O)C(C)(C)NC(=O)C(C)NC(=O)C(C)(C)NC(=O)C(Cc2ccc3ccccc3c2)NC(=O)C(C)(C)NC1=O` (centres unmarked) [Compound 1A] (cyclo([Aib][2Nal][Aib]A[Aib][Bpa][Aib]A); configuration not given here), in experiment [1], the “kSSET (Average)” value worked out at 3.67e+07 s⁻¹. For the same compound, the kSSET in experiment [2] (λex 224 nm) was 3.8e+07 s⁻¹; in experiment [2] (λex 266 nm) it was 3.6e+07 s⁻¹; in experiment [2] (λex 280 nm), 3.6e+07 s⁻¹.

For `CC(NC(=O)C(C)(C)NC(=O)C(Cc1ccc(C(=O)c2ccccc2)cc1)NC(=O)C(C)(C)NC(=O)C(C)NC(=O)C(C)(C)NC(=O)C(Cc1ccc2ccccc2c1)NC(=O)C(C)(C)N)C(=O)O` (centres unmarked) [Compound 1B] (H-[Aib][2Nal][Aib]A[Aib][Bpa][Aib]A-OH; configuration not given here), the kSSET in experiment [2] (λex 224 nm) is 2.44e+08 s⁻¹; in experiment [2] (λex 266 nm), 1.8e+08 s⁻¹; in experiment [2] (λex 280 nm) it was 1.36e+08 s⁻¹.
